According to US6359144B1, “Combinatorial libraries of bicyclic guanidine derivatives and compounds therein” (Lion Bioscience AG, priority 1997, dated 2002):
Values joined by “and” are separate entries in the source; they are usually repeats but may differ in a detail not shown here. Equal values may be shown once.

Each molecule was assayed against T1, calmodulin (Homo sapiens, UniProt P0DP23) (assay: Calmodulin-dependent phosphodiesterase (CaMPDE) assay). Settings: 53 individual compounds, Table 17.
T1 construct: purchased Boehringer Mannheim (calmodulin); Sigma (PDE, 5'-nucleotidase)
Format: biochemical
Experimental: An example of an assay that identifies CaM antagonists is a CaMPDE assay, such as the one whose results are shown in Examples IX to XII, below. Samples are mixed with 50 μl of assay buffer (360 mM Tris, 360 mM Imidazole, 45 mM Mg(CH3COO)2, pH 7.5) and 10 μl of CaCl2 (4.5 mM) to a final volume of 251 μl. 25 μl of calmodulin stock solution (Boehringer Mannheim; 0.01 μg/μl) is then added and the samples then sit at room temperature for 10 minutes. 14 μl of PDE (Sigma; 2 Units dissolved in 4 ml of water; stock concentration: 0.0005 Units/μl) is then added, followed by 50 μl of 5′-nucleotidase (Sigma; 100 Units dissolved in 10 ml of 10 mM Tris-HCl containing 0.5 mM Mg(CH3COO)2, pH 7.0; stock concentration: 10 Units/ml). The samples are then incubated for 10 minutes at 30° C. 50 μl of adenosine 3′,5′-cyclic monophosphate (cAMP) (20 mM in water at pH 7.0) is added, the samples incubated for 1 hour at 30° C. and then vortexed. 200 μl of trichloroacetic acid (TCA) (55% in water) is added to a 200 μl sample aliquot, which is then vortexed and centrifuged for 10 minutes. 80 μl of the resulting supernatants of each sample is transferred to a 96-well plate, with 2 wells each containing 80 μl of each sample. 80 μl of ammonium molybdate (1.1% in 1.1N H2SO4) is then added to all the wells, and the OD of each were determined at 730 nm, with the values later subtracted to the final OD reading. 16 μl of reducing agent (6 g sodium bisulfite, 0.6 g sodium sulfite and 125 mg of 1-amino-2-naphtol-4-sulfonic acid in 50 ml of water) is then added to one of each sample duplicate and 16 μl of water is added to the other duplicate. After sitting for 1 hour at room temperature, the OD of each well is determined at 730 nm. […]

Row | SMILES | IC50
1 | C1CCC(CC2CN3C(=NCC3C3CCCCC3)N2CCC23CC4CC(CC(C4)C2)C3)CC1 (single isomer, unassigned) [D-chg/L-Cha/1-adamantaneacetic acid] | 4.74 µM and 6.46 µM
2 | C1CCC(CC2CN3C(=NCC3C3CCCCC3)N2CCC23CC4CC(CC(C4)C2)C3)CC1 (single isomer, unassigned) [L-Chg/L-Cha/1-adamantaneacetic acid] | 13.4 µM and 25.8 µM
3 | c1ccc(CC2CN3C(=NCC3Cc3ccccc3)N2CCCC2CCCCC2)cc1 [L-Phe/L-Phe/cyclohexylpropionic acid] | 21.5 µM
4 | O=[N+]([O-])c1ccc(CCN2C3=NC[C@H](Cc4ccccc4)N3C[C@@H]2Cc2ccccc2)c([N+](=O)[O-])c1 [L-Phe/L-Phe/2,4-dinitrophenylacetic acid] | 12.5 µM
5 | CC(C)(C)C1CCC(CN2C3=NC[C@H](CC4CCCCC4)N3C[C@H]2CC2CCCCC2)CC1 (some centres unmarked) | 1.89 µM
6 | CCN1C2=NC[C@@H](C)N2C[C@@H]1Cc1ccccc1 [D-ala/L-Phe/acetic acid] | 40.1 µM
7 | CC(C)(C)C1CCC(CN2C3=NC[C@H](CC4CCCCC4)N3C[C@@H]2C2CCCCC2)CC1 (some centres unmarked) | 10.1 µM
8 | CC(C)(C)C1CCC(CN2C3=NC[C@@H](CC4CCCCC4)N3C[C@@H]2C2CCCCC2)CC1 (some centres unmarked) | 4.71 µM
9 | C1CCC(CC2CN3C(=NCC3C3CCCCC3)N2CCC23CC4CC(CC(C4)C2)C3)CC1 (single isomer, unassigned) [L-Chg/D-cha/1-adamantaneacetic acid] | 2.83 µM
10 | CC(C)(C)C1CCC(CN2C3=NCC(C4CCCCC4)N3CC2CC2CCCCC2)CC1 (single isomer, unassigned) [listing 2 of 4 here] | 3.19 µM
11 | CC(C)(C)C1CCC(CN2C3=NC[C@@H](C4CCCCC4)N3C[C@H]2C2CCCCC2)CC1 (some centres unmarked) | 15.5 µM
12 | C1CCC(CC2CN3C(=NCC3C3CCCCC3)N2CCC23CC4CC(CC(C4)C2)C3)CC1 (single isomer, unassigned) [D-chg/D-cha/1-adamantaneacetic acid] | 15.1 µM
13 | CC(C)(C)C1CCC(CN2C3=NC[C@H](C4CCCCC4)N3C[C@H]2C2CCCCC2)CC1 (some centres unmarked) | 13.1 µM
14 | C1CCC(C[C@H]2CN=C3N2C[C@@H](C2CCCCC2)N3CCC23CC4CC(CC(C4)C2)C3)CC1 [L-Cha/D-chg/1-adamantaneacetic acid] | 6.11 µM
15 | CC(C)(C)C1CCC(CN2C3=NC[C@H](Cc4ccccc4)N3C[C@@H]2Cc2ccccc2)CC1 (some centres unmarked) | 21.5 µM
16 | CC(C)(C)C1CCC(CN2C3=NC[C@H](CC4CCCCC4)N3C[C@@H]2CC2CCCCC2)CC1 (some centres unmarked) | 2.24 µM
17 | CC(C)(C)C1CCC(CN2C3=NC[C@@H](CC4CCCCC4)N3C[C@H]2CC2CCCCC2)CC1 (some centres unmarked) | 4.43 µM
18 | C1CCC(C2CN3C(=NCC3C3CCCCC3)N2CCC23CC4CC(CC(C4)C2)C3)CC1 (single isomer, unassigned) [D-chg/D-chg/1-adamantaneacetic acid] | 21.5 µM
19 | C1CCC(CCCN2C3=NC[C@@H](C4CCCCC4)N3C[C@@H]2CC2CCCCC2)CC1 [D-chg/L-Cha/cyclohexylpropionic acid] | 15.7 µM
20 | CC(C)(C)C1CCC(CN2C3=NC[C@H](CC4CCCCC4)N3C[C@H]2C2CCCCC2)CC1 (some centres unmarked) | 3.98 µM
21 | C1CCC(C2CN3C(=NCC3C3CCCCC3)N2CCC23CC4CC(CC(C4)C2)C3)CC1 (single isomer, unassigned) [L-Chg/L-Chg/1-adamantaneacetic acid] | 19.8 µM
22 | C1CCC(CC2CN3C(=NCC3CC3CCCCC3)N2CCC23CC4CC(CC(C4)C2)C3)CC1 (single isomer, unassigned) [L-Cha/L-Cha/1-adamantaneacetic acid] | 7.86 µM
23 | CC(C)(C)C1CCC(CN2C3=NCC(C4CCCCC4)N3CC2CC2CCCCC2)CC1 (single isomer, unassigned) [listing 4 of 4 here] | 2.4 µM

Continued by falling IC50, values first:

Row | IC50 | SMILES
24 | 25.2 µM | CC(C)C[C@@H]1CN2C(=NC[C@@H]2C2CCCCC2)N1CCCC1CCCCC1 [L-Chg/D-leu/cyclohexylpropionic acid]
25 | 24.8 µM | CCN1C2=NC[C@H](Cc3ccccc3)N2C[C@@H]1Cc1c[nH]c2ccccc12 [L-Phe/L-Trp/acetic acid]
26 | 19.5 µM | CCN1C2=NC[C@H](Cc3ccccc3)N2C[C@H]1Cc1c[nH]c2ccccc12 [L-Phe/D-trp/acetic acid]
27 | 17.4 µM | C1CCC(C[C@@H]2CN=C3N2C[C@@H](C2CCCCC2)N3CCC23CC4CC(CC(C4)C2)C3)CC1 [D-cha/D-chg/1-adamantaneacetic acid]
28 | 16.9 µM | CC(C)C[C@@H]1CN2C(=NC[C@@H]2C2CCCCC2)N1CCC12CC3CC(CC(C3)C1)C2 [L-Chg/D-leu/1-adamantaneacetic acid]
29 | 16.7 µM | c1ccc(C[C@H]2CN=C3N(CCC45CC6CC(CC(C6)C4)C5)[C@@H](Cc4ccccc4)CN32)cc1 [L-Phe/L-Phe/1-adamantaneacetic acid]
30 | 16.2 µM | C1CCC(C[C@H]2CN=C3N2C[C@H](C2CCCCC2)N3CCC23CC4CC(CC(C4)C2)C3)CC1 [L-Cha/L-Chg/1-adamantaneacetic acid]
31 | 14.6 µM | CC(C)(C)C1CCC(CN2C3=NC[C@H](C4CCCCC4)N3C[C@@H]2C2CCCCC2)CC1 (some centres unmarked)
32 | 14.1 µM | c1ccc(CC2CN3C(=NCC3Cc3ccccc3)N2CCc2ccc(-c3ccccc3)cc2)cc1 [L-Phe/L-Phe/4-biphenylacetic acid]
33 | 12.9 µM | C1CCC(C2CN3C(=NCC3C3CCCCC3)N2CCC23CC4CC(CC(C4)C2)C3)CC1 (single isomer, unassigned) [D-chg/L-Chg/1-adamantaneacetic acid]
34 | 10.7 µM | CC(C)(C)C1CCC(CN2C3=NC[C@@H](C4CCCCC4)N3C[C@@H]2C2CCCCC2)CC1 (some centres unmarked)
35 | 10.2 µM | C1CCC(CC2CN3C(=NCC3CC3CCCCC3)N2CCC23CC4CC(CC(C4)C2)C3)CC1 (single isomer, unassigned) [D-cha/D-cha/1-adamantaneacetic acid]
36 | 10.1 µM | C1CCC(C[C@@H]2CN=C3N2C[C@H](C2CCCCC2)N3CCC23CC4CC(CC(C4)C2)C3)CC1 [D-cha/L-Chg/1-adamantaneacetic acid]
37 | 8.65 µM | CC(C)(C)C1CCC(CN2C3=NCC(C4CCCCC4)N3CC2CC2CCCCC2)CC1 (single isomer, unassigned) [listing 1 of 4 here]
38 | 6.98 µM | c1ccc(CC2CN3C(=NCC3Cc3ccccc3)N2CCCCC2CCCCC2)cc1 [L-Phe/L-Phe/cyclohexylbutyric acid]
39 | 5.21 µM | CC(C)(C)C1CCC(CN2C3=NCC(C4CCCCC4)N3CC2CC2CCCCC2)CC1 (single isomer, unassigned) [listing 3 of 4 here]
40 | 4.73 µM | CC(C)(C)C1CCC(CN2C3=NC[C@@H](CC4CCCCC4)N3C[C@H]2C2CCCCC2)CC1 (some centres unmarked)
41 | 4.61 µM | C1CCC(C2CN3C(=NCC3C3CCCCC3)N2CCC23CC4CC(CC(C4)C2)C3)CC1 (single isomer, unassigned) [L-Chg/D-chg/1-adamantaneacetic acid]
42 | 3.97 µM | C1CCC(CC2CN3C(=NCC3CC3CCCCC3)N2CCC23CC4CC(CC(C4)C2)C3)CC1 (single isomer, unassigned) [D-cha/L-Cha/1-adamantaneacetic acid]
43 | 2.81 µM | CC(C)(C)C1CCC(CN2C3=NC[C@@H](CC4CCCCC4)N3C[C@@H]2CC2CCCCC2)CC1 (some centres unmarked)
44 | 2.25 µM | C1CCC(CC2CN3C(=NCC3CC3CCCCC3)N2CCC23CC4CC(CC(C4)C2)C3)CC1 (single isomer, unassigned) [L-Cha/D-cha/1-adamantaneacetic acid]
